These results are taken from ChEMBL document CHEMBL3612000, “Synthesis, leishmanicidal, trypanocidal and cytotoxic activity of quinoline-hydrazone hybrids” (Eur J Med Chem, 2015).

Converted amounts (≈) assume the structure as drawn.

For data set [1], the system named is Leishmania panamensis. Briefly: Leishmanicidal activity against intracellular amastigotes of Leishmania (Viannia) panamensis MHOM/CO/87/UA140pIR-GFP infected in human U937 cells assessed as decrease of intracellular parasite load at 20 ug/ml after 72 hrs. Particulars: U-937, 72 h. Type of data set: functional.
Data set [2] in a line: (§1) Cytotoxicity against human U937 cells assessed as cell viability after 72 hrs by MTT assay. Type of data set: cell-based, U-937. Particulars: U937 cells, read-out: LC50.
Data set [3] deals with Trypanosoma cruzi. Put plainly: Trypanocidal activity against intracellular amastigotes of Trypanosoma cruzi Tulahuen infected in human U937 cells assessed as reduction of viability of intracellular amastigotes by measuring beta-galactosidase activity at 20 ug/ml after 72 hrs by spectrophotometry analysis. The class given is functional. Particulars: U-937, 72 h.
For the next data set, the system named is Leishmania major. Put plainly: Antileishmanial activity against Leishmania major. Type of data set: functional, organism-based.
Data set [4] deals with Trypanosoma cruzi. Put plainly: Trypanocidal activity against intracellular amastigotes of Trypanosoma cruzi Tulahuen infected in human U937 cells assessed as reduction of viability of intracellular amastigotes by measuring beta-galactosidase activity after 72 hrs by spectrophotometry analysis. Conditions: U-937, 72 h. Type of data set: functional, organism-based.
The nature of data set [5]: Selectivity index, ratio of LC50 for human U937 cells to EC50 for intracellular amastigotes of Trypanosoma cruzi Tulahuen. Type of data set: toxicity, cell-based, U-937.
Data set [6] relates to Trypanosoma cruzi. Put plainly: Trypanocidal activity against intracellular amastigotes of Trypanosoma cruzi Tulahuen infected in human U937 cells assessed as reduction of viability of intracellular amastigotes by measuring beta-galactosidase activity at 10 ug/ml after 72 hrs by spectrophotometry analysis. The class given is functional. Particulars: U-937, 72 h.
The subject of data set [7] is Leishmania panamensis. Put plainly: Leishmanicidal activity against intracellular amastigotes of Leishmania (Viannia) panamensis MHOM/CO/87/UA140pIR-GFP infected in human U937 cells assessed as decrease of intracellular parasite load at 10 ug/ml after 72 hrs. The class given is functional.
The next data set deals with U-937. The data set is described as §1. The class given is cell-based. Conditions: u-937, 72 h, read-out: LC50 (the source's name).
Data set [8] is described as follows: Selectivity index, ratio of LC50 for human U937 cells to EC50 for intracellular amastigotes of Leishmania (Viannia) panamensis MHOM/CO/87/UA140pIR-GFP. Type of data set: toxicity, cell-based, U-937.
Data set [9] concerns Leishmania panamensis. Put plainly: Leishmanicidal activity against intracellular amastigotes of Leishmania (Viannia) panamensis MHOM/CO/87/UA140pIR-GFP infected in human U937 cells assessed as decrease of intracellular parasite load after 72 hrs. Type of data set: functional, organism-based, U-937.
Data set [10] concerns Trypanosoma cruzi. Put plainly: Trypanocidal activity against intracellular amastigotes of Trypanosoma cruzi Tulahuen infected in human U937 cells assessed as reduction of viability of intracellular amastigotes by measuring beta-galactosidase activity at 5 ug/ml after 72 hrs by spectrophotometry analysis. Type of data set: functional. Particulars: U-937, 72 h.
Data set [11] concerns Leishmania panamensis. Briefly: Leishmanicidal activity against intracellular amastigotes of Leishmania (Viannia) panamensis MHOM/CO/87/UA140pIR-GFP infected in human U937 cells assessed as decrease of intracellular parasite load at 1 ug/ml after 72 hrs. Particulars: U-937, 72 h. Type of data set: functional.
Data set [12] concerns Leishmania panamensis. Briefly: Leishmanicidal activity against intracellular amastigotes of Leishmania (Viannia) panamensis MHOM/CO/87/UA140pIR-GFP infected in human U937 cells assessed as decrease of intracellular parasite load at 0.05 ug/ml after 72 hrs. The class given is functional. Particulars: U-937, 72 h.
Data set [13] has as its system Leishmania panamensis. Put plainly: Leishmanicidal activity against intracellular amastigotes of Leishmania (Viannia) panamensis MHOM/CO/87/UA140pIR-GFP infected in human U937 cells assessed as decrease of intracellular parasite load at 5 ug/ml after 72 hrs. Type of data set: functional. Particulars: U-937, 72 h.
Setting [14] is: Leishmania panamensis, MHOM/CO/87/UA140pIR-GFP, U-937, 72 h, read-out: EC50.

As to `O=C(N/N=C/c1ccc(O)c(O)c1O)c1ccnc2ccccc12`, the figures for the inhibition at 20 µg/mL in the data set on Leishmania panamensis [1] and in the data set on Trypanosoma cruzi [3] were 21.3% and 15.7%, respectively. Besides, the CC50 at 72 h in data set [2] turned out to be 347 µM.
Molecule `CCN(CC)NC(=O)c1ccc(OCc2ccccc2)cc1` came in with an IC50 in the data set on Leishmania major of 21 µM.
In the case of `O=C(N/N=C/c1ccc(O)cc1O)c1ccnc2ccccc12`, the EC50 with Trypanosoma cruzi [4] came out at 20.8 mg/L (≈ 67.7 µM). Also, the selectivity ratio in [5] was 0.5. In addition, the CC50 at 72 h in data set [2] came out at 34.5 µM. The inhibition at 10 µg/mL in the data set on Trypanosoma cruzi [6] was determined as 27.7%.
For the molecule “MEGLUMINE ANTIMONATE [listing 1 of 2 here]”, the inhibition with Leishmania panamensis [7] (U-937) worked out at 79.4%.
Take `O=C(N/N=C/c1cccc(O)c1O)c1ccnc2ccccc12`: in the data set with Leishmania panamensis [7] (U-937, 72 h), the inhibition at 10 µg/mL was found to be 47.4%. Also, the CC50 at 72 h in data set [2] was 47.5 µM. Besides, the inhibition at 20 µg/mL in the data set on Trypanosoma cruzi [3] was found to be 27.4%.
In the case of “MEGLUMINE ANTIMONATE [listing 2 of 2 here]”, the CC50 with U-937 amounted to 6 µM. In addition, in [8] (u-937), the Ratio is 78.6. Further, in the data set on Leishmania panamensis [9] (u-937), the EC50 was 6.3 mg/L.
On to `O=C(N/N=C/c1cc(O)ccc1O)c1ccc2ccccc2n1`, for which the inhibition at 20 µg/mL was determined as 64% in the data set with Leishmania panamensis [1] and 24% in the data set on Trypanosoma cruzi [3]. Besides, in [2], the CC50 at 72 h is 159 µM. In [8], the selectivity ratio was determined as 2.8. The EC50 with Leishmania panamensis [9] (setting [14]) is 37.2 mg/L (≈ 121 µM).
With `O=C(N/N=C/c1ccccc1O)c1ccc2ccccc2n1`, the half-maximal effective concentration (EC50) in the data set with Trypanosoma cruzi [4] worked out at 1.4 mg/L (≈ 4.81 µM). For the same molecule, the selectivity ratio in data set [5] was found to be 11.6. For the same molecule, the inhibition at 20 µg/mL in the data set on Leishmania panamensis [1] was 16.8%. In addition, in the data set on Trypanosoma cruzi [10], the inhibition at 5 µg/mL stood at 50.4%. In data set [2], the CC50 at 72 h was 56 µM.
In the case of `O=C(N/N=C/c1ccc(O)cc1O)c1ccc2ccccc2n1`, the results for the EC50 in the data set on Trypanosoma cruzi [4] and with Leishmania panamensis [9] (setting [14]) were 6.6 mg/L (≈ 21.5 µM) and 0.8 mg/L (≈ 2.6 µM), respectively. Further, the inhibition at 1 µg/mL in the data set on Leishmania panamensis [11] turned out to be 64.7%. Moreover, the selectivity ratio was 0.5 in data set [5] and 4.5 in [8]. Also, the inhibition at 5 µg/mL in the data set on Trypanosoma cruzi [10] amounted to 41.5%. In data set [2], the CC50 at 72 h is 11.7 µM.
Turning to `O=C(N/N=C/c1ccc(O)c(O)c1O)c1ccc2ccccc2n1`, the inhibition at 20 µg/mL was found to be 68.2% in the data set with Leishmania panamensis [1] and 36.1% with Trypanosoma cruzi [3]. Further, in [2], the CC50 at 72 h turned out to be 221 µM. In [8], the selectivity ratio was 4.6. In addition, the EC50 in the data set on Leishmania panamensis [9] (setting [14]) stood at 15.4 mg/L (≈ 47.6 µM).
For `C[C@@H]1[C@H](O)[C@@H](C)/C=C/C=C/C=C/C=C/C=C/C=C/C=C/[C@H](O[C@@H]2O[C@H](C)[C@@H](O)[C@H](N)[C@@H]2O)C[C@@H]2O[C@](O)(C[C@@H](O)C[C@@H](O)[C@H](O)CC[C@@H](O)C[C@@H](O)CC(=O)O[C@H]1C)C[C@H](O)[C@H]2C(=O)O` [AMPHOTERICIN B], the inhibition at 0.05 µg/mL with Leishmania panamensis [12] was 76%. In data set [2], the CC50 at 72 h turned out to be 45.6 µM. The selectivity ratio in data set [8] turned out to be 1050.
Regarding `O=C(N/N=C/c1cc(O)ccc1O)c1ccnc2ccccc12`, the inhibition at 20 µg/mL in the data set on Leishmania panamensis [1] is 26.1%; in the data set with Trypanosoma cruzi [3], 20.7%. Besides, the CC50 at 72 h in data set [2] was above 651 µM.
As to `O=C(N/N=C/c1cccc(O)c1O)c1ccc2ccccc2n1`, the inhibition at 20 µg/mL is 75.7% in the data set with Leishmania panamensis [1] and 31% in the data set on Trypanosoma cruzi [3]. The CC50 at 72 h in data set [2] came to 99.6 µM. Moreover, the selectivity ratio in data set [8] was 4.7. Besides, in the data set on Leishmania panamensis [9] (setting [14]), the 50% effective concentration (EC50) came out at 6.5 mg/L (≈ 21.2 µM).
On to `O=C(Cn1ccnc1[N+](=O)[O-])NCc1ccccc1` [BENZNIDAZOLE], for which, in the data set on Trypanosoma cruzi [4], the EC50 came out at 10.5 mg/L (≈ 40.3 µM). Besides, the selectivity ratio in data set [5] came out at 17. For the same molecule, the inhibition at 20 µg/mL in the data set on Trypanosoma cruzi [3] came out at 87.6%.
With `O=C(N/N=C/c1ccc(O)cc1O)c1nccc2ccccc12`, the inhibition at 5 µg/mL with Leishmania panamensis [13] amounted to 62.6%. Besides, the CC50 at 72 h in [2] stood at 28.6 µM. Also, in data set [8], the selectivity ratio was 2.6. Also, the EC50 in the data set on Leishmania panamensis [9] (setting [14]) stood at 3.4 mg/L (≈ 11.1 µM).
